Measured values as given in patent US9371351B2, “Glycomimetics as Pseudomonas aeruginosa lectin inhibitors” (priority 2012, dated 2016).
Where two headings read alike, the source gives them in different places.

Tests used:
[1] = target: T1, LecB (Pseudomonas aeruginosa, UniProt Q9HYN5); assay: biochemical; type: binding
Description: (§1) In this assay format, the displacement of a fluorescently-labeled reporter ligand bound to the receptor by an inhibitor can be measured by mixing protein, inhibitor and reporter ligand in a given buffer system.

[2] = target: T1, LecB; assay: Binding thermodynamics to LecB by isothermal calorimetry; conditions: average of two measurements
[3] = target: T1, LecB; assay: biochemical; type: binding; conditions: IC50 relative to Me-α-Man; below 1 = stronger ligand than Me-α-Man
Protocol: A LecB competition assay was carried out by a novel fluorescence polarization assay developed by the inventors of the present invention. To date, an enzyme-linked lectin assay (ELLA) is widely used for the evaluation in screening of the binding potential of ligands to LecB. This allows the evaluation of molecules over a broad affinity range, including monovalent ligands and oligomeric dendrimers thereof. ELLAs have been developed based on enzyme-linked immunosorbent assays (ELISA). […] Furthermore, the current ELLA protocol involves either a surface immobilization of LecB or a covalent modification of the lectin, which could interfere with ligand binding. Consequently, hits from the ELLA are usually further characterized by direct measurement of the binding process of the ligand with the native, unmodified protein using microcalorimetry, requiring large amounts of protein.
as §1
Similar conditions were applied, but the protein concentration was fixed at 150 nM. […] The resulting sigmoidal data points on the logarithmic inhibitor concentration scale were used to fit a one-site inhibition model and obtain IC50 values.
After addition of the reagents, the microtiter plates were centrifuged at 800 rpm for 1 min at 23° C. and incubated for 6 h at room temperature. The fluorescence was measured on a Tecan […] F500 plate reader (Tecan Austria GmbH) with excitation filters at 485 nm and emission filters at 535 nm in black 384-well microtiter plates (Greiner Bio-One). The G-factor was set on 0.92154 and the gain to 80. The measured intensities were reduced by buffer values. The data were analyzed with Graphpad Prism 5 and fitted according to the four parameter variable slope model.

[4] = target: T1, LecB; conditions: LecB 13 μg/mL and S. cerevisiae
Description: (§2) This agglutination could then be disrupted by addition of inhibitors of LecB.
(§3) For the yeast agglutination, PBS-washed S. cerevisiae strain ss328 was used instead of sheep red blood cells, without papain treatment.

[5] = target: T1, LecB; conditions: LecB and papain treated sheep erythrocytes
Description: as §2, §3

[6] = target: T1, LecB; conditions: known value, background; cited from earlier work

T1 sequence (Q9HYN5 entry or part of it): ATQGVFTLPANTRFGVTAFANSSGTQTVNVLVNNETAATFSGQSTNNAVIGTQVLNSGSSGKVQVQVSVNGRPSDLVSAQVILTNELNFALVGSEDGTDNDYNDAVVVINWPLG

Row | Compound | TΔS [2] | ΔH [2] | inhibition of agglutination at (concentration) [4] | inhibited agglutination at (concentration) [5] | further results
1 | CC1OC(OCCNC(=S)Nc2ccc(-c3c4ccc(=O)cc-4oc4cc(O)ccc34)c(C(=O)O)c2)C(O)C(O)C1O (mixture of isomers) [reporter ligand 3, N-(fluorescein-5-yl)-N′-(α-L-fucopyranosylethylen)-thiocarbamide] |  |  |  |  | EC50 [1]: 697 nM
2 | CO[C@H]1O[C@H](CNC(=O)/C=C/c2ccccc2)[C@@H](O)[C@H](O)[C@@H]1O [11a, Methyl 6-(cinnamido)-6-deoxy-α-D-mannopyranoside] | 3.4 kcal/mol | -2.9 kcal/mol | 197 µM | 23 µM | rIC50 (MeMan) [3]: 0.3
3 | O=C1OC2(c3ccc(O)cc3Oc3cc(O)ccc32)c2ccc(NC(=S)NCCO[C@H]3O[C@H](CO)[C@@H](O)[C@H](O)[C@@H]3O)cc21 [reporter ligand 5, N-(fluorescein-5-yl)-N′-(α-D-mannopyranosylethylen)-thiocarbamide] |  |  |  |  | EC50 ([1]; titration of reporter ligand with LecB, fluorescence polarization, read-out: EC50): > 16000 nM
4 | CC(=O)N[C@H]1C(O)O[C@H](CO)[C@@H](O[C@@H]2O[C@@H](C)[C@@H](O)[C@@H](O)[C@@H]2O)[C@@H]1O[C@@H]1O[C@H](CO)[C@H](O)[C@H](O)[C@H]1O (stereo partly drawn) [Lewis^a trisaccharide, α-Fuc1-4(βGal1-3)-GlcNAc] |  |  |  |  | Kd [6]: 210 nM
5 | CO[C@H]1O[C@H](CO)[C@@H](O)[C@H](O)[C@@H]1O [Me-α-D-Man, methyl α-D-mannopyranoside, reference compound] | 2.6 kcal/mol | -3.2 kcal/mol | 444 µM | 113 µM | 
